Like-named read-outs stand apart in the source and are kept apart here.
How the values were obtained:
[1] = test system: Hela; experiment: In vitro cytotoxicity, IC50 by MTT method, Hela; type: cell-based; details: Homo sapiens
In short: (§1)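 Cells in RPMI1640 with 10% FBS at 37° C, 5% CO2 were seeded at 10^5/ml and exposed to a compound concentration gradient for 48 h, at least three replicates, solvent controls.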

[2] = test system: PLA-801; experiment: In vitro cytotoxicity, IC50 by MTT method, PLA-801; type: cell-based
In short: as §1

[3] = test system: Bel-7402; experiment: In vitro cytotoxicity, IC50 by MTT method, Bel-7402; type: cell-based; details: Homo sapiens, Bel-7402
In short: as §1

[4] = test system: CT-DNA; experiment: DNA thermal denaturation, determination of ΔTm; type: binding; details: CT-DNA thermal denaturation; 20 uM compound; Tm of CT-DNA alone 61° C.
Method: Experiments were carried out in PE buffer (1 mM Na2HPO4, 0.1 mM EDTA, pH 7.6) in a thermostatically controlled cell hold, and the quartz cuvette (1 cm path length) was heated by circulating water at a heating rate of 0.5° C./min from 25 to 95° C. Amsacrine and Doxorubicin Hydrochloride were used as standards. In all cases, the concentration of CT-DNA was 15 ug/ml. The ‘melting’ temperature Tm was taken as the mid-point of the hyperchromic transition.
ΔTm=Tm^drug-DNA complex−Tm^DNA alone
The ΔTm of each compound was calculated, Experiments were repeated three times, and an average value was calculated.

[5] = test system: BGC-823; experiment: In vitro cytotoxicity, IC50 by MTT method, BGC-823; type: cell-based; details: Homo sapiens, BGC-823
In short: as §1

[6] = test system: HepG2; experiment: In vitro cytotoxicity, IC50 by MTT method, HepG2; type: cell-based, human; details: Homo sapiens
In short: as §1

[7] = test system: Lovo; experiment: In vitro cytotoxicity, IC50 by MTT method, Lovo; type: cell-based; details: Homo sapiens
In short: as §1

[8] = test system: NIH3T3; experiment: In vitro cytotoxicity, IC50 by MTT method, NIH3T3; type: cell-based; details: Mus musculus
In short: as §1

[9] = Hela cell strain, read-out: IC50 Hela
[10] = PLA-801 cell strain, read-out: IC50 PLA-801
[11] = Bel7402 cell strain, read-out: IC50 Bel7402
[12] = BGC823 cell strain, read-out: IC50 BGC823
[13] = HepG2 cell strain, read-out: IC50 HepG2
[14] = Lovo cell strain, read-out: IC50 Lovo
[15] = NIH3T3 cell strain, read-out: IC50 NIH3T3

SMILES	IC50 ([1]; Hela, MTT, read-out: IC50) [µM]	IC50 ([2]; PLA-801, MTT, read-out: IC50) [µM]	IC50 ([3]; BeI7402, MTT, read-out: IC50) [µM]	ΔTm [4] [°C]	IC50 ([5]; BGC823, MTT, read-out: IC50) [µM]	IC50 ([6]; HepG2, MTT, read-out: IC50) [µM]	IC50 ([7]; Lovo, MTT, read-out: IC50) [µM]	IC50 ([8]; NIH3T3, MTT, read-out: IC50) [µM]	IC50 [1, 9] [µM]	IC50 [2, 10] [µM]	IC50 [3, 11] [µM]	IC50 [5, 12] [µM]	IC50 [6, 13] [µM]	IC50 [7, 14] [µM]	IC50 [8, 15] [µM]	melting point [°C]
COc1ccc2c3ccnc(C)c3n(CCO)c2c1 [Compound 5, 9-hydroxyethyl-7-methoxy-1-methyl-β-carboline]	30	80	240	5.9	200	310	30	80	–	–	–	–	–	–	–	–
CCn1c2ccccc2c2cc(NC(=O)OC)ncc21 [Compound 53, 9-ethyl-3-[(methoxycarbonyl)amino]-β-carboline]	–	–	–	–	–	–	–	–	> 3000	> 3000	> 3000	> 3000	> 3000	> 3000	> 3000	213 to 214
CCOC(=O)Nc1cc2c3ccccc3n(CC)c2cn1 [Compound 54, 3-[(ethoxycarbonyl)amino]-9-ethyl-β-carboline]	–	–	–	–	–	–	–	–	> 3000	> 3000	1680	> 3000	> 3000	> 3000	> 3000	217 to 218
CCOC(=O)c1cc2c3ccccc3n(C)c2c(C)n1 [Compound 56, ethyl 1,9-dimethyl-β-carboline-3-carboxylate]	–	–	–	–	–	–	–	–	110	140	490	130	100	50	60	141 to 142
CCOC(=O)c1cc2c3ccccc3n(CC)c2c(C)n1 [Compound 57, ethyl 9-ethyl-1-methyl-β-carboline-3-carboxylate]	–	–	–	–	–	–	–	–	60	160	880	70	80	50	60	96 to 98
CCOC(=O)c1cc2c3ccccc3n(Cc3ccccc3)c2c(C)n1 [Compound 58, ethyl 9-benzyl-1-methyl-β-carboline-3-carboxylate]	–	–	–	–	–	–	–	–	250	1390	210	2080	2000	170	1820	155 to 156
CCOC(=O)c1cc2c3ccccc3n(CCCc3ccccc3)c2c(C)n1 [Compound 59, ethyl 9-phenylpropyl-1-methyl-β-carboline-3-carboxylate]	–	–	–	–	–	–	–	–	40	110	180	40	40	20	30	101 to 102
Cc1nc(C(=O)O)cc2c3ccccc3n(C)c12 [Compound 62, 1,9-dimethyl-β-carboline-3-carboxylic acid]	–	–	–	–	–	–	–	–	1110	2350	1500	640	1380	440	630	262 to 264
CCn1c2ccccc2c2cc(C(=O)O)nc(C)c21 [Compound 63, 9-ethyl-1-methyl-β-carboline-3-carboxylic acid]	–	–	–	–	–	–	–	–	970	2330	1820	1660	2800	590	710	243 to 245
Cc1nc(C(=O)O)cc2c3ccccc3n(CCCc3ccccc3)c12 [Compound 65, 9-phenylpropyl-1-methyl-β-carboline-3-carboxylic acid]	–	–	–	–	–	–	–	–	220	210	560	270	140	50	110	186 to 188
CCCc1nc(C(=O)OCC)cc2c3ccccc3n(C)c12 [Compound 68, ethyl 1-propyl-9-methyl-β-carboline-3-carboxylate]	–	–	–	–	–	–	–	–	1360	140	460	110	100	60	80	108 to 109
CCCc1nc(C(=O)OCC)cc2c3ccccc3n(CC)c12 [Compound 69, ethyl 1-propyl-9-ethyl-β-carboline-3-carboxylate]	–	–	–	–	–	–	–	–	90	710	330	230	110	100	100	86 to 87
CCCc1nc(C(=O)OCC)cc2c3ccccc3n(Cc3ccccc3)c12 [Compound 70, ethyl 9-benzyl-1-propyl-β-carboline-3-carboxylate]	–	–	–	–	–	–	–	–	810	160	1010	1010	790	1170	1570	158 to 159
CCCc1nc(C(=O)OCC)cc2c3ccccc3n(CCCc3ccccc3)c12 [Compound 71, ethyl 9-phenylpropyl-1-propyl-β-carboline-3-carboxylate]	–	–	–	–	–	–	–	–	60	260	910	1320	120	60	190	92 to 93
CCCc1nc(C(=O)O)cc2c3ccccc3n(C)c12 [Compound 72, 9-methyl-1-propyl-β-carboline-3-carboxylic acid]	–	–	–	–	–	–	–	–	960	1400	> 3000	540	1170	210	570	181 to 183
CCCc1nc(C(=O)O)cc2c3ccccc3n(CC)c12 [Compound 73, 1-propyl-9-ethyl-β-carboline-3-carboxylic acid]	–	–	–	–	–	–	–	–	420	710	570	390	540	260	390	189 to 191
COC(=O)c1cc2c3ccccc3n(C)c2c(-c2ccccc2)n1 [Compound 76, methyl 1-phenyl-9-methyl-β-carboline-3-carboxylate]	–	–	–	–	–	–	–	–	> 3000	> 3000	620	> 3000	> 3000	> 3000	> 3000	205 to 207
CCn1c2ccccc2c2cc(C(=O)OC)nc(-c3ccccc3)c21 [Compound 77, methyl 1-phenyl-9-ethyl-β-carboline-3-carboxylate]	–	–	–	–	–	–	–	–	2660	> 3000	380	> 3000	> 3000	70	140	169 to 170

Reference: patent publication US20090227619A1, “Harmine derivatives, intermediates used in their preparations, preparation processes and use therefo” (priority 2003, published 2009)
